Article PMC12378621, “Benzo-ring modification on Malaria Box hit MMV008138: effects on antimalarial potency and microsomal stability” (RSC Medicinal Chemistry, 2025)
Values joined by “and” are separate entries in the source; they are usually repeats but may differ in a detail not shown here. Equal entries are not always repeated. Where two headings read alike, the source gives them in different places. One block for each compound: values may come before it.

Assays:
[1] = test system: P. falciparum (Dd2 strain); assay: ABS P. falciparum growth inhibition, SYBR Green I assay, 72 h endpoint; type: cell-based, Plasmodium falciparum; conditions: for EC50: Plasmodium falciparum, DD2, SYBR Green I, 72 h endpoint, read-out: Dd2 strain P. falciparum growth inhibition EC50; for loss of growth inhibition potency (EC50) relative to 1: Dd2 strain
Description: Parasites were maintained in O-positive human erythrocytes (Grifols, Memphis, TN, USA) at 5% hematocrit in RPMI 1640 medium supplemented with 5 g L^−1 Albumax I (Gibco Life Technologies), 2 g L^−1 glucose (Sigma-Aldrich), 2.3 g L^−1 sodium bicarbonate (Sigma-Aldrich), 370 μM hypoxanthine (Sigma-Aldrich), 25 mM HEPES, and 20 mg L^−1 gentamicin (Gibco Life Technologies). The parasites were kept at 37 °C under reduced-oxygen conditions (5% CO2, 5% O2, and 90% N2).
(§1) […]. MMV008138 (1) was used as control. The percentage of growth was normalized to that of untreated control parasites in the presence of 0.1% DMSO. Background determinations were made using uninfected erythrocytes. Two or more independent experiments in duplicate were performed. The EC50 values were calculated with GraphPad Prism 9 (GraphPad Software Ltd.) using nonlinear regression curve fitting with variable slope (four parameters) and represent the average and their standard error of the mean (S.E.M.). To assess whether 20a–e specifically targeted the apicoplast, the recovery of growth in the presence of inhibitor and isopentenyl diphosphate (IPP) was performed as described previously.[8] Briefly, parasites were grown in the presence or absence of 200 μM IPP along with a serial dilution (10 μM to 0.01 μM) or single concentration (10 or 20 μM) of drug. […] All conditions were set in 96-well half area plates using highly synchronous ring-stage parasite cultures (100 μL per well at 1% hematocrit and 1% parasitemia) and incubated for 72 h under normal culture conditions. Parasite growth was measured by the SYBR green I assay.

[2] = test system: P. falciparum (Dd2 strain); conditions: 72 h exposure, multidrug-resistant Dd2 strain; reported values; read-out: Dd2 strain EC50; cited from earlier work
[3] = Mouse microsomal stability (authors' laboratory, UPLC/MS/MS); conditions: presence of NADPH
Description: Mouse microsomal stability of 20a, 20c, 20d was first assessed in our laboratory. […]
and coumarin were used as controls . Microsomal stability was assessed by ultra-performance liquid chromatography and high -resolution mass spectrometry […]
MA). Potassium phosphate monobasic, potassium phosphate dibasic, and coumarin were purchased from Sigma-Aldrich (St. Louis, MO). Briefly, compound incubations were carried out by the addition of mouse liver microsomes (0.5 mg/ml) in 0.05 M potassium phosphate buffer (pH 7.4), solution A and B, and preincubated at 37°C for 5 min. Control experiments were also carried out in the absence of NADPH solution A and B. Coumarin reaction was used as positive control. Reactions were terminated by adding acetonitrile. Sample analysis was performed on an IonKey/MS system composed of an ACQUITY UPLC M-Class, the ionKey source, and an iKey BEH C18 130 Å 1.7 µm 150 µm x 50 mm column coupled to a Synapt G2-Si mass spectrometer (Waters Corporation, Milford, MA, USA). Separation was accomplished using a binary gradient system consisting of 0.1% formic acid in water (mobile phase A) and 0.1% formic acid in acetonitrile (mobile phase B). The linear gradient was programmed as follows: 0-3 min 1% B, 3- […]
was 3 µL/min, the injection volume was 3 µL in full loop mode, and the iKey temperature was set at 40°C. MS analyses were performed acquiring in MSE mode from 80 to 1500 m/z in positive electrospray ionization mode with a capillary voltage of 3 kV. Data were collected in two channels all the time: low collision energy (6.0 V), for the molecular ions, and high collision energy (15-40 V), for product ions. The source temperature was set at 110°C. Leucine […]
scan at 20 s intervals. Infusion flow rate for lock mass was 1 μL/min. The microsomal stability was determined using MassLynx software (Waters Corporation, Milford, MA, USA). Relative amounts were calculated by comparing the peak area of each evaluated compound at time 0 minutes to its corresponding area at times 45, 90 and 180 minutes to return a ratio.

[4] = test system: P. falciparum (Dd2 strain); assay: Metabolic rescue of parasite growth by isopentenyl diphosphate (IPP) supplementation; type: cell-based, Plasmodium falciparum; conditions: drug at 10 μM
Description: as §1

[5] = test system: Plasmodium berghei ANKA expressing luciferase (PbGFP-Luccon); assay: In vivo efficacy in P. berghei-infected mice (luminescence on Day 7)
Description: 2. In vivo efficacy studies of 1 (NYU) in P. berghei-infected mice (po and iv) Efficacy of 1 in P. berghei-infected mice was assessed at the Anti-Infectives Core Facility, Department of Microbiology, Grossman School of Medicine, New York University.
A. Oral Administration Protocol
Three groups of five female Swiss Webster mice weighing 25 to 30 g were used for vehicle […]
berghei ANKA expressing luciferase (PbGFP-Luccon) obtained from a donor infected mouse.10 […]
2 to 6 and imaged on day 7.
Figure S1. Dosing and imaging timeline of P. berghei-infected mice. […]
Day 7 as described in the text.
The vehicle for all groups was 0.5% (hydroxypropyl)methyl cellulose, 0.5% Tween-80.
For the surviving mice, o n day 7 after infection, mice were anesthetized by inhalation of isofluorane and injected via i.p. with 150 mg/kg of luciferase substrate dissolved in PBS (D-Luciferin Potassium Salt , Gold Biotechnology ).
Mice were imaged 5 to 10 min after inj ection of luciferin using an IVIS imager (Lumina II In Vivo Imaging System; Perkin -Elmer). The data acquisition and analysis were performed with LivingImage (Xenogen). Accumulated light intensity was measured in each mouse to determine the baseline infection levels before treatment .
(1 picture or pasted object on this page, not shown here)
B. IV Administration Protocol
One group of four female Swiss Webster mice weighing 25 to 30 g were used for vehicle control, and groups of five mice were used for 1 treatment (IV, 2 x 30 mg/kg/d) and the positive […]
On Day 0, mice were infected via intraperitoneal (i.p.) […]
from a donor infected mouse. 10 As shown below in Figure S2 (and legend), mice were treated […]
Figure S2. Dosing and imaging timeline of P. berghei-infected mice. Vehicle and 1 (30 mpk) treatments were administered IV twice -daily on Days 2-6. […]
administered i .p. once-daily. Mice were imaged on Day 7, as described in the text.
The vehicle for this study was 30%PEG, 40% Captisol (30%w/v solution).
Table S2. Luminescence Data after background subtraction for IV dosing of Vehicle, 1, and IP […]
Table S9. Concentration of 20c vs time in mice. […]
Figure S6. Dosing and imaging timeline of P. berghei-infected mice. […]

[6] = Table 2, enantiopure, average ± S.E.M
[7] = Table S2, Days 2-6, imaged Day 7, Cmpd 1 30 mg/kg 2 x daily IV, CQ 20 mg/kg 1 x daily i.p.

Structure (SMILES): O=C(O)[C@@H]1Cc2c([nH]c3cc(C(F)(F)F)ccc23)[C@@H](c2ccc(Cl)cc2Cl)N1 (racemic) [(±)-17c]
EC50 ([1]; Table 1, racemic samples): 1.25 to 2.5 µM

Structure (SMILES): O=C(O)[C@@H]1Cc2c([nH]c3ccccc23)[C@@H](c2ccc(Cl)cc2)N1 [Compound 4]
EC50 [2]: 1.17 µM

Structure (SMILES): Cc1ccc2c3c([nH]c2c1)[C@@H](c1ccc(Cl)cc1Cl)N[C@H](C(=O)O)C3 (racemic) [(±)-16c]
EC50 ([1]; Table 1, racemic samples): > 10 µM

Structure (SMILES): O=C(O)[C@@H]1Cc2c([nH]c3ccccc23)[C@@H](c2ccccc2Cl)N1 [Compound 3]
EC50 [2]: 3.28 µM

Structure (SMILES): Cc1cccc2c3c([nH]c12)[C@@H](c1ccc(Cl)cc1Cl)N[C@H](C(=O)O)C3 (racemic) [(±)-16d]
EC50 ([1]; Table 1, racemic samples): > 10 µM

Structure (SMILES): O=C(O)[C@@H]1Cc2c([nH]c3cccc(Cl)c23)[C@@H](c2ccc(Cl)cc2Cl)N1 (racemic) [(±)-19a]
EC50 ([1]; Table 1, racemic samples): > 10 µM

Structure (SMILES): Cc1ccc2[nH]c3c(c2c1)C[C@@H](C(=O)O)N[C@@H]3c1ccc(Cl)cc1Cl (racemic) [(±)-16b]
EC50 ([1]; Table 1, racemic samples): > 10 µM

Structure (SMILES): O=C(O)[C@@H]1Cc2c([nH]c3cccc(C(F)(F)F)c23)[C@@H](c2ccc(Cl)cc2Cl)N1 (racemic) [(±)-17a]
EC50 ([1]; Table 1, racemic samples): > 10 µM

Structure (SMILES): NC(=O)[C@@H]1Cc2c([nH]c3ccccc23)[C@@H](c2ccc(Cl)cc2Cl)N1 [Compound 6]
EC50 [2]: 1.2 µM

Structure (SMILES): CCCCNC(=O)[C@@H]1Cc2c([nH]c3ccccc23)[C@@H](c2ccc(Cl)cc2Cl)N1 [Compound 9]
EC50 [2]: > 10 µM

Structure (SMILES): O=c1ccc2ccccc2o1 [coumarin]
% drug remaining ([3]; 0 min): 100%
% drug remaining ([3]; 45 min): 27%
% drug remaining ([3]; 90 min): 5%

Structure (SMILES): O=C(O)[C@@H]1Cc2c([nH]c3ccc(Br)cc23)[C@@H](c2ccc(Cl)cc2Cl)N1 (racemic) [(±)-18b]
EC50 ([1]; Table 1, racemic samples): > 10 µM

Structure (SMILES): CCN(CC)CCCC(C)Nc1ccnc2cc(Cl)ccc12 (centres unmarked) [CQ, chloroquine]
Luminescence AVG ([5]; Table S1, oral 1 x daily Days 2-6, imaged Day 7, CQ 20 mg/kg): 4.65E+03
Live/Dead and luminescence, individual mice ([5]; Table S1, oral 1 x daily Days 2-6, imaged Day 7, Cmpd 1 45 mg/kg, CQ 20 mg/kg): 4.72E+03 and 4.45E+03 and 4.90E+03 and 4.60E+03 and 4.61E+03
Luminescence after background subtraction AVG [5, 7]: 2.29E+03
Luminescence after background subtraction, individual mice [5, 7]: 0.00E+00 and 4.64E+03 and 2.76E+03 and 3.48E+03
Luminescence after background subtraction, individual mice ([5]; Table S10, 40 mg/kg 1 x daily PO Days 2-6, imaged Day 7): 4.90E+03 and 3.85E+03 and 4.20E+03
treated mice survived to Day 7 ([5]; oral Days 2-6): 5

Structure (SMILES): CNC(=O)[C@@H]1Cc2c([nH]c3ccccc23)[C@@H](c2ccc(Cl)cc2Cl)N1 [Compound 7]
EC50 [2]: 0.19 ± 0.03 µM

Structure (SMILES): Cc1cccc2[nH]c3c(c12)C[C@@H](C(=O)O)N[C@@H]3c1ccc(Cl)cc1Cl (racemic) [(±)-16a]
EC50 ([1]; Table 1, racemic samples): > 10 µM

Structure (SMILES): CC(C)NC(=O)[C@@H]1Cc2c([nH]c3ccccc23)[C@@H](c2ccc(Cl)cc2Cl)N1 [Compound 10]
EC50 [2]: ~10 µM

Structure (SMILES): O=C(O)[C@@H]1Cc2c([nH]c3ccccc23)[C@@H](c2ccc(Br)cc2Cl)N1 [Compound 2]
EC50 [2]: 0.32 ± 0.06 µM

Structure (SMILES): CCNC(=O)[C@@H]1Cc2c([nH]c3ccccc23)[C@@H](c2ccc(Cl)cc2Cl)N1 [Compound 8]
EC50 [2]: ~5 µM

Structure (SMILES): O=C(O)[C@@H]1Cc2c([nH]c3ccccc23)[C@@H](c2ccccc2)N1 [Compound 5]
EC50 [2]: > 10 µM

The next lines start with results.

loss of growth inhibition potency (EC50) relative to 1 [1]: 17 fold
EC50 [1, 6]: 4.3 ± 0.6 µM
Structure (SMILES): O=C(O)[C@@H]1Cc2c([nH]c3cc(Br)ccc23)[C@@H](c2ccc(Cl)cc2Cl)N1 [Compound 18c]

EC50 [1, 6]: > 10 µM
Structure (SMILES): O=C(O)[C@@H]1Cc2c([nH]c3cccc(Br)c23)[C@@H](c2ccc(Cl)cc2Cl)N1 [Compound 18a]

loss of growth inhibition potency (EC50) relative to 1 [1]: 5 fold
EC50 [1, 6]: 1.3 ± 0.1 µM
Structure (SMILES): O=C(O)[C@@H]1Cc2c([nH]c3cc(Cl)ccc23)[C@@H](c2ccc(Cl)cc2Cl)N1 [Compound 19c]

EC50 [1, 6]: > 10 µM
Structure (SMILES): O=C(O)[C@@H]1Cc2c([nH]c3c(Br)cccc23)[C@@H](c2ccc(Cl)cc2Cl)N1 [Compound 18d]

EC50 [1, 6]: 0.964 ± 0.063 µM
Structure (SMILES): O=C(O)[C@@H]1Cc2c([nH]c3cc(F)cc(F)c23)[C@@H](c2ccc(Cl)cc2Cl)N1 [Compound 20e]
% recovery (200 μM IPP) [4]: 80%@10 μM

EC50 [1, 6]: 1.25 to 2.5 µM
Structure (SMILES): O=C(O)[C@@H]1Cc2c([nH]c3ccc(F)cc23)[C@@H](c2ccc(Cl)cc2Cl)N1 [Compound 20b]

EC50 [1, 6]: > 20 µM
Structure (SMILES): N#Cc1ccc2c3c([nH]c2c1)[C@@H](c1ccc(Cl)cc1Cl)N[C@H](C(=O)O)C3 [Compound 21c]

EC50 [1, 6]: > 10 µM
Structure (SMILES): N#Cc1ccc2[nH]c3c(c2c1)C[C@@H](C(=O)O)N[C@@H]3c1ccc(Cl)cc1Cl [Compound 21b]

EC50 [1, 6]: > 10 µM
Structure (SMILES): N#Cc1cccc2[nH]c3c(c12)C[C@@H](C(=O)O)N[C@@H]3c1ccc(Cl)cc1Cl [Compound 21a]
